We go through two molecules from patent US20100197803A1, “METHOD FOR OBTAINING A SEQUOYITOL-CONTAINING EXTRACT FROM A PLANT OF THE GENUS OF TRIFOLIUM, LEGUMINOSAE OR GINKOACEAE AND USES THEREOF” (LIANCHUANGSIYUANLI BIOLOGY AND SCIENCE AND TECHNOLOGY CO., …, priority 2007, published 2010).

Where a name gives a salt, the structure may show the parent alone.

Series [1] relates to elevated level of blood glucose induced by Alloxan in mice. In words: Effect on the elevated level of blood glucose induced by alloxan in mice. It counts as in vivo. To be noted: 75 mg/kg for 7 days. The protocol: Animals: 100 male mice weighed 22-25 g, Positive control: Phenformin Hydrochloride (Jiangsu Yabang Pharmaceutical (group) Co., Ltd.),
20 mice were randomly selected as the blank group. Others were injected intravenously with Alloxan via caudal vein at a dose of 65 mg/kg body weight, and then modeled according to established methods. The mice were divided into 4 groups according to their level of blood glucose, in which 3 groups were administered with 60 mg/kg of the plant extract, 75 mg/kg of Phenformin Hydrochloride, or 60 mg/kg of sequoyitol-containing Taxus chinensis extract respectively for 7 days, in a volume of 0.1 ml/10 g body weight. The same volume of distilled water was administered to the blank group and the control group. Blood glucose was determined using glucose oxidase method.

In series [2] the test system is diabetes models. The conditions noted are these: sequoyitol isolated from Taxus chinensis; cited from earlier work.
The conditions of series [3]: sequoyitol isolated from Taxus chinensis; cited from earlier work.
Series [4] is described as follows: Solubility in water. The series is classed as physicochemical. The protocol:
The sequoyitol was dissolved in water and sterilized by filtration. Solutions for injection were prepared according to the preparation process of solutions for injection. Powder for injection was prepared according to the preparation process of lyophilized powder for injection.

Consider `[H]/N=C(/N)N/C(=N/[H])NCCc1ccccc1` [Phenformin Hydrochloride], for which the “Decrease of alloxan-induced hyperglycemia in comparison to the control group” value in series [1] was found to be 155.8 mg/dL.

Regarding `CO[C@H]1[C@H](O)[C@@H](O)[C@@H](O)[C@@H](O)[C@@H]1O` [Sequoyitol, sequoyitol], in series [2], the “Effect on breakdown of hepatic glycogen and absorption of glucose” value is “inhibits the breakdown of hepatic glycogen and the absorption of glucose”; the “Effect on high glycemia in diabetes models” value is given as “remarkably decreases high glycemia”. Further, the Toxicity entry in series [3] is given as “very low toxicity”. For the same molecule, in series [4], the Solubility in water result is “well soluble in water”.
